Reference: ChEMBL document CHEMBL3885881, “DrugMatrix”

Organism: Rattus norvegicus
Assay: DrugMatrix - Regimen: Daily Repeat
Format: toxicity, organism-based, Sprague-Dawley
Set-up: regimen Daily Repeat, gender Male, age 6-8 weeks
Settings: in vivo, po, route oral GAVAGE, vehicle .5 % CMC; for ABSOLUTE BASOPHIL / ABSOLUTE EOSINOPHIL / ABSOLUTE LYMPHOCYTE / ABSOLUTE MONOCYTE / ABSOLUTE SEGMENTED NEUTROPHIL / BASOPHIL / EOSINOPHIL / ERYTHROCYTE COUNT / HEMATOCRIT / HEMOGLOBIN / LEUKOCYTE COUNT / LYMPHOCYTE / MEAN CORPUSCULAR HEMOGLOBIN / MEAN CORPUSCULAR HEMOGLOBIN CONCENTRATION / MONOCYTE / NEUTROPHIL / NUCLEATED RED BLOOD CELLS / PLATELET COUNT: tissue Blood; for ALANINE AMINOTRANSFERASE / ALBUMIN / ALKALINE PHOSPHATASE / ASPARTATE AMINOTRANSFERASE / BLOOD UREA NITROGEN / CARBON DIOXIDE / CHLORIDE / CHOLESTEROL / CREATINE PHOSPHOKINASE / CREATININE / GLUCOSE / LACTATE DEHYDROGENASE / LIPASE / PHOSPHORUS / POTASSIUM / SODIUM / TOTAL BILIRUBIN / TOTAL PROTEIN / URIC ACID: tissue Plasma
[1] = 0 mg/kg, 72 h, dose level Control, time 3 day
[2] = 0 mg/kg, 120 h, dose level Control, time 5 day
[3] = 3 mg/kg, 72 h, dose level Low, time 3 day

COc1cc2nc(N3CCN(C(=O)c4ccco4)CC3)nc(N)c2cc1OC [PRAZOSIN]
ABSOLUTE BASOPHIL [1]: 0 CELLS/uL | ABSOLUTE EOSINOPHIL [1]: 171.33 CELLS/uL | ABSOLUTE LYMPHOCYTE [1]: 13776.5 CELLS/uL | ABSOLUTE MONOCYTE [1]: 180.83 CELLS/uL | ABSOLUTE SEGMENTED NEUTROPHIL [1]: 1121.33 CELLS/uL | BASOPHIL [1]: 0% | EOSINOPHIL [1]: 1% | ERYTHROCYTE COUNT [1]: 5.56 x10E6/uL | HEMATOCRIT [1]: 34.75% | HEMOGLOBIN [1]: 13.68 G/DL | LEUKOCYTE COUNT [1]: 15.25 x10E3/uL | LYMPHOCYTE [1]: 90.17% | MEAN CORPUSCULAR HEMOGLOBIN [1]: 24.6 pg | MEAN CORPUSCULAR HEMOGLOBIN CONCENTRATION [1]: 39.4 G/DL | MONOCYTE [1]: 1.17% | NEUTROPHIL [1]: 7.67% | NUCLEATED RED BLOOD CELLS [1]: 0 /100WBC | PLATELET COUNT [1]: 1342 x10E3/uL | ALANINE AMINOTRANSFERASE [1]: 49.67 u/L | ALBUMIN [1]: 4.15 G/DL | ALKALINE PHOSPHATASE [1]: 346.83 u/L | ASPARTATE AMINOTRANSFERASE [1]: 108.17 u/L | BLOOD UREA NITROGEN [1]: 17.33 mg/dL | CARBON DIOXIDE [1]: 25 mmol/L | CHLORIDE [1]: 100.83 MEQ/L | CHOLESTEROL [1]: 66.83 mg/dL | CREATINE PHOSPHOKINASE [1]: 788 u/L | CREATININE [1]: 0.18 mg/dL | GLUCOSE [1]: 151.67 mg/dL | LACTATE DEHYDROGENASE [1]: 982.5 u/L | LIPASE [1]: 10.33 u/L | PHOSPHORUS [1]: 11.23 mg/dL | POTASSIUM [1]: 6.37 MEQ/L | SODIUM [1]: 141.02 MEQ/L | TOTAL BILIRUBIN [1]: 0.18 mg/dL | TOTAL PROTEIN [1]: 5.9 G/DL | URIC ACID [1]: 1.8 mg/dL | ABSOLUTE BASOPHIL [2]: 0 CELLS/uL | ABSOLUTE EOSINOPHIL [2]: 69 CELLS/uL | ABSOLUTE LYMPHOCYTE [2]: 13632.83 CELLS/uL | ABSOLUTE MONOCYTE [2]: 139.83 CELLS/uL | ABSOLUTE SEGMENTED NEUTROPHIL [2]: 1225 CELLS/uL | BASOPHIL [2]: 0% | EOSINOPHIL [2]: 0.33% | ERYTHROCYTE COUNT [2]: 5.52 x10E6/uL | HEMATOCRIT [2]: 33.98% | HEMOGLOBIN [2]: 13.22 G/DL | LEUKOCYTE COUNT [2]: 15.07 x10E3/uL | LYMPHOCYTE [2]: 90.83% | MEAN CORPUSCULAR HEMOGLOBIN [2]: 23.95 pg | MEAN CORPUSCULAR HEMOGLOBIN CONCENTRATION [2]: 38.9 G/DL | MONOCYTE [2]: 0.83% | NEUTROPHIL [2]: 8% | NUCLEATED RED BLOOD CELLS [2]: 0 /100WBC | PLATELET COUNT [2]: 1196 x10E3/uL | ALANINE AMINOTRANSFERASE [2]: 49.17 u/L | ALBUMIN [2]: 4.2 G/DL | ALKALINE PHOSPHATASE [2]: 352.33 u/L | ASPARTATE AMINOTRANSFERASE [2]: 89.67 u/L | BLOOD UREA NITROGEN [2]: 18 mg/dL | CARBON DIOXIDE [2]: 27.67 mmol/L | CHLORIDE [2]: 101 MEQ/L | CHOLESTEROL [2]: 72.83 mg/dL | CREATINE PHOSPHOKINASE [2]: 417.5 u/L | CREATININE [2]: 0.18 mg/dL | GLUCOSE [2]: 150.5 mg/dL | LACTATE DEHYDROGENASE [2]: 517.33 u/L | LIPASE [2]: 9 u/L | PHOSPHORUS [2]: 11.87 mg/dL | POTASSIUM [2]: 6.57 MEQ/L | SODIUM [2]: 143.62 MEQ/L | TOTAL BILIRUBIN [2]: 0.2 mg/dL | TOTAL PROTEIN [2]: 6.08 G/DL | URIC ACID [2]: 1.45 mg/dL | ABSOLUTE BASOPHIL [3]: 0 CELLS/uL | ABSOLUTE EOSINOPHIL [3]: 118.67 CELLS/uL | ABSOLUTE LYMPHOCYTE [3]: 13015.33 CELLS/uL | ABSOLUTE MONOCYTE [3]: 208 CELLS/uL | ABSOLUTE SEGMENTED NEUTROPHIL [3]: 1224.67 CELLS/uL | BASOPHIL [3]: 0% | EOSINOPHIL [3]: 0.67% | ERYTHROCYTE COUNT [3]: 5.43 x10E6/uL | HEMATOCRIT [3]: 33.53% | HEMOGLOBIN [3]: 13.07 G/DL | LEUKOCYTE COUNT [3]: 14.57 x10E3/uL | LYMPHOCYTE [3]: 89.67% | MEAN CORPUSCULAR HEMOGLOBIN [3]: 24.1 pg | MEAN CORPUSCULAR HEMOGLOBIN CONCENTRATION [3]: 38.97 G/DL | MONOCYTE [3]: 1.33% | NEUTROPHIL [3]: 8.33% | NUCLEATED RED BLOOD CELLS [3]: 0 /100WBC | PLATELET COUNT [3]: 1384.67 x10E3/uL | ALANINE AMINOTRANSFERASE [3]: 59.67 u/L | ALBUMIN [3]: 3.97 G/DL | ALKALINE PHOSPHATASE [3]: 505 u/L | ASPARTATE AMINOTRANSFERASE [3]: 74.67 u/L | BLOOD UREA NITROGEN [3]: 13.33 mg/dL | CARBON DIOXIDE [3]: 24.33 mmol/L | CHLORIDE [3]: 102 MEQ/L | CHOLESTEROL [3]: 70 mg/dL | CREATINE PHOSPHOKINASE [3]: 271 u/L | CREATININE [3]: 0.22 mg/dL | GLUCOSE [3]: 128.67 mg/dL | LACTATE DEHYDROGENASE [3]: 254.33 u/L | LIPASE [3]: 10.67 u/L | PHOSPHORUS [3]: 12.33 mg/dL | POTASSIUM [3]: 6.67 MEQ/L | SODIUM [3]: 142.25 MEQ/L | TOTAL BILIRUBIN [3]: 0.2 mg/dL | TOTAL PROTEIN [3]: 5.63 G/DL | URIC ACID [3]: 1.43 mg/dL
